Test results reported in US11701359B2, “Exon 18 and/or exon 21 mutant EGFR selective inhibitor” (priority 2017, dated 2023).
pIC50: −log10 of the molar value. Where two headings read alike, the source gives them in different places.

How the values were obtained:
human EGFR L861Q = target: T1, human EGFR L861Q (Homo sapiens, UniProt P00533, L861Q); assay: Intracellular EGFR phosphorylation in mutant EGFR forced expression system using HEK293 cells; assay type: cell-based; settings: HEK293 cells expressing human EGFR L861Q, 6 hours; read-out: IC50, phosphorylated EGFR inhibition, L861Q
T1 construct: expressed in transfected cells; host or cells: Jump-In Grip HEK293 cells (Thermo Fisher Scientific), pJTI R4 DEST CMV pA vector

NIH3T3-EGFR G719A cells = assay: Antitumor effect on mouse model subcutaneously transplanted with G719A mutant EGFR-expressing cell line; settings: nude mice
Protocol: (§1) The maximum tolerated dose was determined in accordance with the “Guidelines Involving Experimental Neoplasia Proposals in Mice and Rats” of the National Cancer Institute (NCI), from a humanitarian perspective.
(§2) To compare the changes in growth of tumor over time due to administration of the individual test compounds, the tumor volume (which may be hereinafter referred to as “TV”) was used as an index. For a toxicity index, the body weight was measured over time, and the body weight change (which may be hereinafter referred to as “BWC (%)”) from the day on which the mice were divided into groups was calculated in accordance with the following formula. BWC (%)=(the body weight measured on body weight measurement day)/(the body weight on the day mice were divided into groups)
(§3) T/C (%)=(the average TV of the group administered with a test compound)/(the average TV of the control group)×100

[1] = as above; settings: nude, mouse, in vivo, po
Protocol: as §1, §2, §3

Ba/F3-EGFR G719A cells = assay: Cell growth inhibitory effect, G719A mutant EGFR-expressing Ba/F3 cell line (CellTiter-Glo); assay type: cell-based, mouse; settings: for IC50: Mus musculus, 72 h, read-out: IC50 (nM) G719A
Protocol: (§4) Evaluation of Cell Growth Inhibitory Effect Against Wild-Type EGFR- and Mutant EGFR-Expressing Cell Line (In Vitro)
(§5) The inhibitory activity of compounds against wild-type EGFR and mutant EGFR was evaluated using Ba/F3 cells, which are mouse B-lymphocyte precursor cell line to which a human EGFR gene was introduced.
(§6) The solutions were then added to each well of the culture plate of the cells, and the cells were incubated in a 5% CO2 gas-containing incubator at 37° C. for 3 days. The cell count after incubation was measured by a CellTiter-Glo (trademark) Luminescent Cell Viability Assay (Promega Corporation) in accordance with the manufacturer's recommended protocol.

human EGFR G719S = target: T2, human EGFR G719S (Homo sapiens, UniProt P00533, G719S); assay: Intracellular EGFR phosphorylation in mutant EGFR forced expression system using HEK293 cells; assay type: cell-based; settings: HEK293 cells expressing human EGFR G719S, 6 hours; read-out: IC50, phosphorylated EGFR inhibition, G719S
T2 construct: expressed in transfected cells; host or cells: Jump-In Grip HEK293 cells (Thermo Fisher Scientific), pJTI R4 DEST CMV pA vector

human EGFR L861Q+T790M = target: T3, human EGFR L861Q+T790M (Homo sapiens, UniProt P00533, L861Q/T790M); assay: as above; assay type: cell-based; settings: HEK293 cells expressing human EGFR L861Q+T790M, 6 hours; read-out: IC50, phosphorylated EGFR inhibition, L861Q + T790M
T3 construct: expressed in transfected cells; host or cells: Jump-In Grip HEK293 cells (Thermo Fisher Scientific), pJTI R4 DEST CMV pA vector

human EGFR G719C = target: T4, human EGFR G719C (Homo sapiens, UniProt P00533, G719C); assay: as above; assay type: cell-based; settings: HEK293 cells expressing human EGFR G719C, 6 hours; read-out: IC50, phosphorylated EGFR inhibition, G719C
T4 construct: expressed in transfected cells; host or cells: Jump-In Grip HEK293 cells (Thermo Fisher Scientific), pJTI R4 DEST CMV pA vector

Ba/F3-EGFR_WT cells = assay: Cell growth inhibitory effect, wild-type EGFR-expressing Ba/F3 cell line (CellTiter-Glo); assay type: cell-based; settings: Mus musculus, BaF3, 72 h, read-out: IC50 (nM) WT
Protocol: as §4, §5, §6

human EGFR E709K = target: T5, human EGFR E709K (Homo sapiens, UniProt P00533, E709K); assay: Intracellular EGFR phosphorylation in mutant EGFR forced expression system using HEK293 cells; assay type: cell-based; settings: HEK293 cells expressing human EGFR E709K, 6 hours; read-out: IC50, phosphorylated EGFR inhibition, E709K
T5 construct: expressed in transfected cells; host or cells: Jump-In Grip HEK293 cells (Thermo Fisher Scientific), pJTI R4 DEST CMV pA vector
T5 sequence (P00533 25-1210 E709K): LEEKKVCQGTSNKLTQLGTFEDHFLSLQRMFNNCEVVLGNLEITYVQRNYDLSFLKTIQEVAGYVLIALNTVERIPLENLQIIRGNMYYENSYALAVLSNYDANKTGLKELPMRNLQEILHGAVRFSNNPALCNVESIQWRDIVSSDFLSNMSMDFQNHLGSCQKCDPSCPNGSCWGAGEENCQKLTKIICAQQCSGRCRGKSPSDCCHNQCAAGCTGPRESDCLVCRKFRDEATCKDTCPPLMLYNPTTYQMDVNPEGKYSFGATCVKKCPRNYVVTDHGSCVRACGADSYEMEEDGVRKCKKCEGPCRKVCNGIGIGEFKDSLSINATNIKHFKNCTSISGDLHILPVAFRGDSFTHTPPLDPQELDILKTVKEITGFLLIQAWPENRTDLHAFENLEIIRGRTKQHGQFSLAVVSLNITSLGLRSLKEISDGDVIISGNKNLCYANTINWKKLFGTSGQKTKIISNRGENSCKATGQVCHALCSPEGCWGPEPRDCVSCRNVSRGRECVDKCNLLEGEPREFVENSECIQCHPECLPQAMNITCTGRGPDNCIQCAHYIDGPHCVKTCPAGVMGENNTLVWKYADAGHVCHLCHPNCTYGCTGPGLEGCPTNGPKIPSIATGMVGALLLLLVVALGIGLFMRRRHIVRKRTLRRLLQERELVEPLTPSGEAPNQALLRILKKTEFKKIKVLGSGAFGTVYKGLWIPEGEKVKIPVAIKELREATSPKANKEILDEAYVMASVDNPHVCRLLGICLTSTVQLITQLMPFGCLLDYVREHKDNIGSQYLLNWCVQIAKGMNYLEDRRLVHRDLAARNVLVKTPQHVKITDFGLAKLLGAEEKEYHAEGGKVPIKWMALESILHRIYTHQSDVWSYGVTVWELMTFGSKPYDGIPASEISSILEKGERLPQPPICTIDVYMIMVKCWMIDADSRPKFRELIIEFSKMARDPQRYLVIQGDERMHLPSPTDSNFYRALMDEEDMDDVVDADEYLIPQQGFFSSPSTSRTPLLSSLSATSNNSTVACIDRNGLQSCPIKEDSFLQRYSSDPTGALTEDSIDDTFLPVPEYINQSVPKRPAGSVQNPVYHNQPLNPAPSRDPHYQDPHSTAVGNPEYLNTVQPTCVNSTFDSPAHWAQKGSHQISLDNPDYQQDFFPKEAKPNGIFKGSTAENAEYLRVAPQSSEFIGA

human EGFR G719A = target: T6, human EGFR G719A (Homo sapiens, UniProt P00533, G719A); assay: as above; assay type: cell-based; settings: HEK293 cells expressing human EGFR G719A, 6 hours; read-out: IC50, phosphorylated EGFR inhibition, G719A
T6 construct: expressed in transfected cells; host or cells: Jump-In Grip HEK293 cells (Thermo Fisher Scientific), pJTI R4 DEST CMV pA vector
T6 sequence (P00533 25-1210 G719A): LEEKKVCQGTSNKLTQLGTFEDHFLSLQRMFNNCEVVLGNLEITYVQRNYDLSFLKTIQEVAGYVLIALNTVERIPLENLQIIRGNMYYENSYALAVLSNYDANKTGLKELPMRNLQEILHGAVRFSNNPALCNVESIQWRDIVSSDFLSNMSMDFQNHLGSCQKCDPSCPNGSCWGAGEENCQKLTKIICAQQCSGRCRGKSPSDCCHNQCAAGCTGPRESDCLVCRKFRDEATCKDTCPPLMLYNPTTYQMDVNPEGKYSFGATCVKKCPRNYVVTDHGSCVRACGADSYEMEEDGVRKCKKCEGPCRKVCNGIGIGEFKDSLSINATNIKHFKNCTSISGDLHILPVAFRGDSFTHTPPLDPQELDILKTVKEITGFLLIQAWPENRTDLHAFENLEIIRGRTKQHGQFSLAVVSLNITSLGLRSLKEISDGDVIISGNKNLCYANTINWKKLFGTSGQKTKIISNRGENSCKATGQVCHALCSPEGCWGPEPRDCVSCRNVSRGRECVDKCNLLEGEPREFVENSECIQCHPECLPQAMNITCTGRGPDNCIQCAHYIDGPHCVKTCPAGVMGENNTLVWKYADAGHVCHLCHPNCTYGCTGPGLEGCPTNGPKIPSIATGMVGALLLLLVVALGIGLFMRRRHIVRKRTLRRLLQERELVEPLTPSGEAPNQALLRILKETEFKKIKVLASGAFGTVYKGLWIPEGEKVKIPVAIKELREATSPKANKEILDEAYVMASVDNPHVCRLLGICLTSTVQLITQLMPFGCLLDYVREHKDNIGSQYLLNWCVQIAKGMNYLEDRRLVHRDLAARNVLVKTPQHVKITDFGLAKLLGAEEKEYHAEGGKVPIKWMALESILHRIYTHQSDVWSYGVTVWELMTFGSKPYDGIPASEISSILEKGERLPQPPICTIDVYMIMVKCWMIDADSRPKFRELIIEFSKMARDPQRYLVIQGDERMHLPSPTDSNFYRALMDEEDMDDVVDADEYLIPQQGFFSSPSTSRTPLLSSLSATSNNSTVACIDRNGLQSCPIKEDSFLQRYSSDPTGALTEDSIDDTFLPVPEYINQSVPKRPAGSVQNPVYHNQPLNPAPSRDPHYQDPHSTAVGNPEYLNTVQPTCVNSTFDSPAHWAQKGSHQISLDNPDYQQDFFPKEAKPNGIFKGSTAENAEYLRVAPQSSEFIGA

Ba/F3-EGFR L861Q cells = assay: Cell growth inhibitory effect, L861Q mutant EGFR-expressing Ba/F3 cell line (CellTiter-Glo); assay type: cell-based, mouse; settings: for IC50: Mus musculus, 72 h, read-out: IC50 (nM) L861Q
Protocol: as §4, §5, §6

[2] = test system: NIH3T3-EGFR G719A+T790M cells; assay: in vivo; settings: nude mice; for T/C (%): final evaluation day
Protocol: as §1
(§7) To compare the changes in growth of tumor over time due to administration of the individual test compounds, the tumor volume (which may be hereinafter referred to as “TV”) was used as an index. […] For a toxicity index, the body weight was measured over time, and the body weight change (which may be hereinafter referred to as “BWC (%)”) from the day on which the mice were divided into groups was calculated in accordance with the following formula. […] BWC (%)=(the body weight measured on body weight measurement day)/(the body weight on the day mice were divided into groups)
(§8) A Dunnett's test was performed using the average TV on the final evaluation day as an index. […] T/C (%)=(the average TV of the group administered with a test compound)/(the average TV of the control group)×100

in vivo = settings: mouse, in vivo; nude mice, oral once daily, 14 days, G719A+T790M model; read-out: Maximum tolerated dose (weight loss during dosing period less than 20%)
Protocol: as §1, §7, §8

[3] = test system: Ba/F3-EGFR L861Q+T790M cells; assay: Cell growth inhibitory effect, L861Q+T790M mutant EGFR-expressing Ba/F3 cell line (CellTiter-Glo); assay type: cell-based, mouse; settings: for IC50: Mus musculus, 72 h, read-out: IC50 (nM) L861Q + T790M
Protocol: (§9) These solutions were then added to each well of the culture plate of the cells, and incubated in a 5% CO2 gas-containing incubator at 37° C. for 3 days. The cell count after incubation was measured using a CellTiter-Glo (trademark) Luminescent Cell Viability Assay (Promega Corporation), in accordance with the manufacturer's recommended protocol.

[4] = test system: Ba/F3-EGFR G719A+T790M cells; assay: Cell growth inhibitory effect, G719A+T790M mutant EGFR-expressing Ba/F3 cell line (CellTiter-Glo); assay type: cell-based, mouse; settings: for IC50: Mus musculus, 72 h, read-out: IC50 (nM) G719A + T790M
Protocol: as §9

human EGFR G719A+T790M = target: T7, human EGFR G719A+T790M (Homo sapiens, UniProt P00533, G719A/T790M); assay: Intracellular EGFR phosphorylation in mutant EGFR forced expression system using HEK293 cells; assay type: cell-based; settings: HEK293 cells expressing human EGFR G719A+T790M, 6 hours; read-out: IC50, phosphorylated EGFR inhibition, G719A + T790M
T7 construct: expressed in transfected cells; host or cells: Jump-In Grip HEK293 cells (Thermo Fisher Scientific), pJTI R4 DEST CMV pA vector
T7 sequence (P00533 25-1210 G719A/T790M): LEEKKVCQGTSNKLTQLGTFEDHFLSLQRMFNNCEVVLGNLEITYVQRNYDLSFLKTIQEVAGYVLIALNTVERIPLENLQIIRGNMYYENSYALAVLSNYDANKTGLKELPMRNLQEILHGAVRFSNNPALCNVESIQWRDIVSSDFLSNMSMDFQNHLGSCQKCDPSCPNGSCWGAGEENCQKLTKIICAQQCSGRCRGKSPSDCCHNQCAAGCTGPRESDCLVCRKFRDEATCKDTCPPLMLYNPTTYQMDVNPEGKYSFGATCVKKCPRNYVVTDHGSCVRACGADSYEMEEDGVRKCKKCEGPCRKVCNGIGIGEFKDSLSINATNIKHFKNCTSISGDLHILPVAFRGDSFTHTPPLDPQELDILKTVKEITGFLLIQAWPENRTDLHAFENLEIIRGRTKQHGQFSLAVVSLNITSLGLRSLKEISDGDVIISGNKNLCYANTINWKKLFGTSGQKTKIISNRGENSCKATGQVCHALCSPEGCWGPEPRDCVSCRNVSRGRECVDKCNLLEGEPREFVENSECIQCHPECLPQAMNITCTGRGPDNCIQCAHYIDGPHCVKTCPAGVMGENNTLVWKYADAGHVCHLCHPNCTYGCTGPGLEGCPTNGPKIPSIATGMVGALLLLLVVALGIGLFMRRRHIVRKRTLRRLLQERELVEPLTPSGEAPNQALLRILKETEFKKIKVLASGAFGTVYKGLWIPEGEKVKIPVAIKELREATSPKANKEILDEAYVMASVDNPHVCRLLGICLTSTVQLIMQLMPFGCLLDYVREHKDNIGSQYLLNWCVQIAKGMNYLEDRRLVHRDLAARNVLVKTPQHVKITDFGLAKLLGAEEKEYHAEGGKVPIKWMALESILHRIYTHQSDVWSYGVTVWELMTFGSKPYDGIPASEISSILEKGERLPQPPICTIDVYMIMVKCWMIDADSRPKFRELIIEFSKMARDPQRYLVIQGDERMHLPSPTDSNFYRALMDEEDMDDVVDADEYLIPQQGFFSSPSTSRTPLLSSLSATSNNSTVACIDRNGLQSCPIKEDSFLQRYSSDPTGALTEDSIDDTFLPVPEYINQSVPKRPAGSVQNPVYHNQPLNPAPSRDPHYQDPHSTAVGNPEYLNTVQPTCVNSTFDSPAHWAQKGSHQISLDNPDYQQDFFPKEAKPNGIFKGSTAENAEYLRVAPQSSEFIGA

human EGFR E709A = target: T8, human EGFR E709A (Homo sapiens, UniProt P00533, E709A); assay: as above; assay type: cell-based; settings: HEK293 cells expressing human EGFR E709A, 6 hours; read-out: IC50, phosphorylated EGFR inhibition, E709A
T8 construct: expressed in transfected cells; host or cells: Jump-In Grip HEK293 cells (Thermo Fisher Scientific), pJTI R4 DEST CMV pA vector
T8 sequence (P00533 25-1210 E709A): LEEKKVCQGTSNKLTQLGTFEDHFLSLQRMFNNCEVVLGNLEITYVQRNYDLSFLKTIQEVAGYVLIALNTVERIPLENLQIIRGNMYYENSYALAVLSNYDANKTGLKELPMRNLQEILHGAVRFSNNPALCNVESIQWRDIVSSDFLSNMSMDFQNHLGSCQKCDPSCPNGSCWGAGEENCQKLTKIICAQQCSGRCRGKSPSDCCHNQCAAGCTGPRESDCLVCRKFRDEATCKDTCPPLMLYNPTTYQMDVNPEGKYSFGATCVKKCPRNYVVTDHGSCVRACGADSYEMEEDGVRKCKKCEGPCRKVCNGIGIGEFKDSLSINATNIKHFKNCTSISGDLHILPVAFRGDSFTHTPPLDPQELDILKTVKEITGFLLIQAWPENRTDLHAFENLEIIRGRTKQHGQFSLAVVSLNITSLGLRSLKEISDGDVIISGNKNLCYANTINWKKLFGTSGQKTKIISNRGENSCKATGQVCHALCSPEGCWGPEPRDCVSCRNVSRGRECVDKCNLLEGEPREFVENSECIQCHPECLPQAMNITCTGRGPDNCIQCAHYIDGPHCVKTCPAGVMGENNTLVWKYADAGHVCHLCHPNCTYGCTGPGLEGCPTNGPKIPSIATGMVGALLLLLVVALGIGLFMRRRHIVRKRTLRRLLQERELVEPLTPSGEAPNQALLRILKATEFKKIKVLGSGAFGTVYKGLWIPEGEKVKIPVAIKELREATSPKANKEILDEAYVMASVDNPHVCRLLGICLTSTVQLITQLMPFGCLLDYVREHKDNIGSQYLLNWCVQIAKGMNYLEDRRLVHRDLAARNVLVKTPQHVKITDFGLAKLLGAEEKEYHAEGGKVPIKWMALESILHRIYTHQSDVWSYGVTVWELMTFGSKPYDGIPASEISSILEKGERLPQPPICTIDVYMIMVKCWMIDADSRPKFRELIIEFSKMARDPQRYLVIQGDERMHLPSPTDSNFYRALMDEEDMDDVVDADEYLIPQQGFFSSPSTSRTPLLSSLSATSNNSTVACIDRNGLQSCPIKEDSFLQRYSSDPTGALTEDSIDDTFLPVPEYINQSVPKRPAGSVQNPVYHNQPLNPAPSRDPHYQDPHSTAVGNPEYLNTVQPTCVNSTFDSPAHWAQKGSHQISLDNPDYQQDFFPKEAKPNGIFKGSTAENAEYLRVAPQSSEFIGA

With C=CC(=O)N[C@H]1C=C(C)c2c(-c3cnc4ccccc4c3)c3c(N)ncnc3n2C1 [Compound A, (S)-N-(4-amino-6-methyl-5-(quinolin-3-yl)-8,9-dihydropyrimido[5,4-b]indolizin-8-yl)acrylamide] the pIC50 (human EGFR L861Q) was 4.39, the “Symptoms (weight loss, abnormal feces, abnormal skin)” value (NIH3T3-EGFR G719A cells; NIH3T3-EGFR G719A model, oral once daily 14 days, FIG. 2) was “did not show symptoms” and the “Antitumor effect (tumor volume)” value (NIH3T3-EGFR G719A cells; NIH3T3-EGFR G719A subcutaneous, oral once daily 14 days, 50, 100, 200 mg/kg/day, FIG. 1) was “remarkable antitumor effect”. The MTD at 14 days [1] was 200 mg/kg/day, the “IC50 Ratio WT/G719A” value (Ba/F3-EGFR G719A cells; IC50 (WT)/IC50 (G719A), Ba/F3 cells) was 66.4 and the IC50 (Ba/F3-EGFR G719A cells; Ba/F3 cells with human EGFR G719A, no EGF, 3 days) was 9 nM. The pIC50 (human EGFR G719S) was 4.64, the pIC50 (human EGFR L861Q+T790M) was 4.09 and the pIC50 (human EGFR G719C) was 5.03. The IC50 (Ba/F3-EGFR_WT cells; Ba/F3 cells with human wild-type EGFR, 50 ng/mL EGF, 3 days) was 597 nM, the pIC50 (human EGFR E709K) was 4.07 and the pIC50 (human EGFR G719A) was 4.69. For the same compound, the “IC50 Ratio WT/L861Q” value (Ba/F3-EGFR L861Q cells; IC50 (WT)/IC50 (L861Q), Ba/F3 cells) was 31.4, the IC50 (Ba/F3-EGFR L861Q cells; Ba/F3 cells with human EGFR L861Q, no EGF, 3 days) was 19 nM and the “T/C (%)” value ([2]; 50 mg/kg, oral once daily) was 47.7%. For the same compound, the “T/C (%)” value ([2]; 100 mg/kg, oral once daily) was 36.4%, the “T/C (%)” value ([2]; 200 mg/kg, oral once daily) was 28.0% and the “Symptoms (weight loss, abnormal feces, abnormal skin)” value ([2]; NIH3T3-EGFR G719A+T790M model, oral once daily, FIG. 4) was “without symptoms such as serious weight loss”. For the same compound, the “Antitumor effect (tumor volume)” value ([2]; NIH3T3-EGFR G719A+T790M subcutaneous, oral once daily, 50, 100, 200 mg/kg/day, FIG. 3) was “significant antitumor effect”, the MTD at 14 days (in vivo) was 200 mg/kg/day and the “IC50 Ratio WT/L861Q + T790M” value ([3]; IC50 (WT)/IC50 (L861Q+T790M), Ba/F3 cells) was 15.9. The IC50 ([3]; Ba/F3 cells with human EGFR L861Q+T790M, no EGF, 3 days) was 37.5 nM, the “IC50 Ratio WT/G719A + T790M” value ([4]; IC50 (WT)/IC50 (G719A+T790M), Ba/F3 cells) was 37.9 and the IC50 ([4]; Ba/F3 cells with human EGFR G719A+T790M, no EGF, 3 days) was 15.8 nM. For the same compound, the pIC50 (human EGFR G719A+T790M) was 4.50 and the pIC50 (human EGFR E709A) was 3.99.

C=CC(=O)Nc1cc(Nc2nccc(-c3cn(C)c4ccccc34)n2)c(OC)cc1N(C)CCN(C)C [Osimertinib, osimertinib, reference compound] showed an IC50 (Ba/F3-EGFR G719A cells; Ba/F3 EGFR) of 209 nM, an IC50 (Ba/F3-EGFR_WT cells) of 379 nM and an IC50 (Ba/F3-EGFR L861Q cells; Ba/F3 EGFR) of 47 nM. The IC50 ([3]; Ba/F3 EGFR) was 36.4 nM and the IC50 ([4]; Ba/F3 EGFR) was 89.4 nM.
